Test results: US11351176B2, “Combination therapy” (MEI Pharma, Inc., priority 2017, dated 2022)

Columns and labels:
[1] = system: relapsed B-cell Non-Hodgkin's Lymphoma (NHL), including Chronic Lymphocytic Leukemia (CLL); assay: Phase 1b study of Compound A35 and rituximab in patients with relapsed B-cell malignancies; format: in vivo, human
Protocol: Study of a Combination of a PI3K Inhibitor and a CD20 Inhibitor in Patients with Relapsed B-Cell Non-Hodgkin's Lymphoma (NHL), Including Chronic Lymphocytic Leukemia (CLL)
The purpose of this study is to evaluate the safety and effectiveness of Compound A35 (single dose: 60 mg/day) and rituximab, in patients with relapsed B-cell malignancies.
• Study Type: Interventional • Study Design: Intervention Model: Single Group Assignment • Masking: No masking • Primary Purpose: Treatment
Primary Outcome Measures: • Determine Acceptable Adverse Events That Are Related to Treatment [Time Frame: 6 months of therapy]. To determine the incidence of adverse events, any potential abnormal laboratory results and any dose-limiting toxicities Secondary Outcome Measures: • Efficacy of Compound A35 with Rituximab as assessed by Overall Response (OR) [Time Frame: 2 years]. The efficacy of Compound A35 with Rituximab will be determined by the overall response of subjects calculated as the percent of subjects achieving a complete remission (CR) or a complete remission with incomplete marrow recovery (CRi) or a partial response (PR) according to the International Workshop on Chronic Lymphocytic Leukemia (IWCLL). • Evaluate the PK of Compound A35 with Rituximab (AUC) [Time Frame: 2 years] Determined by the Area Under the Concentration time curve (AUC) • Evaluate the PK of Compound A35 with Rituximab (Cmax) [Time Frame: 2 years] Determined by Peak Plasma Concentration (Cmax)
Eligibility • Ages Eligible for Study: 18 Years and older (Adult, Senior) • Sexes Eligible for Study: All • Accepts Healthy Volunteers: No Criteria Inclusion Criteria: • Diagnosis of relapsed/refractory CLL SLL or FL, MZL, DLBCL and high-grade B-cell lymphoma.
Dosing of Compound A35 is done on a continuous dosing schedule (CS) or an intermittent dosing schedule (IS). On an IS, patients take 60 mg administered once a day on 7 consecutive days followed by 21 days without therapy, with cycles repeated every 28 days. On a CS, patients take 60 mg/day for the entirety of a 28 day cycle. All patients are started on a CS dosing regimen. Patients who complete two cycles of CS are switched to the IS.
In all cases, the dosing of rituximab is 375 mg/m2, administered for a total of 8 doses in 6 months.
15 patients were treated with a regimen consisting of rituximab 375 mg/m^2×8 doses over 6 months and Compound A35 at 60 mg on the CS for 2 cycles then switching to the IS.

[2] = system: relapsed chronic lymphocytic leukemia (CLL); details: combination of idelalisib and a CD20 inhibitor (e.g., rituximab or ofatumumab); cited from earlier work

SMILES: CN1CCC(c2ccccc2CC(C)(C)Nc2nc(N3CCOCC3)nc(-n3c(C(F)F)nc4ccccc43)n2)CC1 [Compound A35]
- response (patients with a reported response) ([1]; in combination with rituximab 375 mg/m2 x 8 doses in 6 months, Compound A35 60 mg/day continuous schedule (CS), indolent NHL (9 FL, 1 MZL), 7 of 10 patients): 70%
- disease progression on the IS among patients with a disease response after 2 cycles ([1]; in combination with rituximab, 8 responders, median follow-up 5.2 months from enrollment): none
- patients with disease progression, discontinued from the study ([1]; in combination with rituximab, CS of Compound A35 60 mg/day, indolent NHL, 10 patients): 1 patient
- rate of response (in words) ([1]; in combination with rituximab, CS, patients): very high rate of response
- patients discontinued due to disease progression ([1]; in combination with rituximab, Compound A35 60 mg/day, DLBCL, 4 patients): 3 patients
- response (patients with a reported response) ([1]; in combination with rituximab, Compound A35 60 mg/day, DLBCL, 1 of 4 patients): 25%
- patients who developed delayed immune-related toxicity ([1]; in combination with rituximab, after 2 cycles CS switched to intermittent schedule (IS, 60 mg 7 days on/21 days off), 1/10 patients, median follow-up 3.4 months on the IS): 10%
- effect of the IS on delayed onset immune toxicities and efficacy (in words) ([1]; in combination with rituximab, intermittent schedule after 2 CS cycles, preliminary data): appears to reduce the incidence of delayed onset immune toxicities without erosion in treatment efficacy
- rate of response (in words) ([1]; in combination with rituximab, patients with relapsed indolent NHL and CLL/SLL): very high rate of response
- durability of responses (in words) ([1]; in combination with rituximab, relapsed indolent NHL and CLL/SLL): appear durable

SMILES: CC[C@H](Nc1ncnc2[nH]cnc12)c1nc2cccc(F)c2c(=O)n1-c1ccccc1 [idelalisib]
- risk of death due to infection and/or severe adverse effects (in words) [2]: alarming increase in the risk of death due to infection and/or severe adverse effects
